# Laboratory results from publication PMC11942279, “Multiple Inhibitory Mechanisms of DS16570511 Targeting Mitochondrial Calcium Uptake: Insights from Biochemical Analysis of Rat Liver Mitochondria” (International Journal of Molecular Sciences, 2025).
# Assays:
# [1] = target: T1, respiratory chain complex II (Rattus norvegicus, UniProt P21913+Q641Z9+Q6PCT8+Q920L2); test: Mitochondrial oxygen consumption with succinate as respiratory substrate; format: biochemical
# T1 construct: from tissue; host or cells: rat liver mitochondria (male Wistar rats)
# Protocol: Figure 5 Effect of DS16570511 on oxygen consumption in the presence of succinate. (a) Mitochondria (Mt), 10 mM succinate, and 0.1 µM SF6847 were added to Pi medium containing the indicated concentrations of DS16570511 or antimycin at the time points marked by arrows. Changes in dissolved oxygen concentration in the reaction medium were measured, and representative traces are shown. “natomsO” denotes the nanomoles of oxygen atoms in the reaction medium. (b) The degree of inhibition was calculated from the rate of oxygen consumption over a 3 min period, measured 30 s after SF6847 addition. […] Data are presented as the mean ± standard deviation of independent experiments (n = 3).
# (§1) Livers were harvested from 6- to 18-week-old male Wistar rats (Japan SLC, Shizuoka, Japan), and mitochondria were isolated as previously described. All animal experiments complied with the University of Tokushima Guidelines for the Care and Use of Laboratory Animals (approval number: T28-29). Mitochondrial protein concentrations were measured using the Biuret method with bovine serum albumin as the standard in the presence of 1% SDS.
# When electrons were supplied via respiratory chain complex I, 5 mM glutamate and 5 mM malate were used as respiratory substrates. For electrons supplied via respiratory chain complex II, 0.68 µg/mL rotenone was added beforehand to inhibit electron transfer from endogenous respiratory chain complex I, and 10 mM succinate was used as the respiratory substrate.
# [2] = system: rat liver mitochondria; test: Comparison with uncouplers on mitochondrial oxygen consumption; format: biochemical; conditions: 10 mM succinate, DS16570511 50 or 200 µM
# Protocol: Figure 4 Comparison of the effects of DS16570511 and uncouplers on mitochondrial oxygen consumption. Mitochondria (Mt), 10 mM succinate (Succ), and each compound (50 or 200 µM DS16570511 [DS], SF6847 [SF], or alamethicin [Ala]) were added to Pi medium at the time points indicated by arrows. Changes in the concentration of dissolved oxygen in the reaction medium were measured using an oxygen electrode. Representative traces are shown. “natomsO” denotes the nanomoles of oxygen atoms in the reaction medium.
# The rate of mitochondrial oxygen consumption was measured using a Clark-type oxygen electrode (YSI5331, Yellow Springs Instrument Co., Ltd., Yellow Springs, OH, USA) at 25 °C in 2.2 mL of Pi medium preincubated with 2.5 µM CsA. When electrons were supplied via respiratory chain complex I, 5 mM glutamate and 5 mM malate were used as respiratory substrates. For electrons supplied via respiratory chain complex II, 0.68 µg/mL rotenone was added beforehand to inhibit electron transfer from endogenous respiratory chain complex I, and 10 mM succinate was used as the respiratory substrate. The degree of inhibition and IC50 values of DS16570511 were calculated based on the oxygen consumption rate over a 3 min period, starting 30 s after the addition of SF6847.
# [3] = system: mice; design: method as in PMID 32126877, PMID 38779706; conditions: cited from earlier work
# [4] = system: Ca2+ uptake; conditions: read-out: IC50 for inhibition of Ca2+ uptake; cited from earlier work
# [5] = system: mitochondrial Ca2+ uptake in rat liver mitochondria; test: Mitochondrial Ca2+ uptake assay (succinate-energized, Fluo-5); format: biochemical; conditions: 10 mM succinate, Ca2+ uptake rate during first 30 s after adding mitochondria, read-out: IC50 for inhibition of mitochondrial Ca2+ uptake
# Protocol: Figure 2 Effect of DS16570511 on mitochondrial Ca^2+ uptake activity in rat liver mitochondria. (a) Mitochondrial Ca^2+ uptake activity was measured in isolated rat liver mitochondria. Mitochondria were added to Pi medium containing the indicated concentrations of DS16570511 or ruthenium 360, and changes in extramitochondrial Ca^2+ concentration over time were analyzed based on Fluo-5 fluorescence intensity. Representative traces are shown. (b) The degree of inhibition was calculated from the Ca^2+ uptake rate during the first 30 s after adding mitochondria. Data are expressed as 0% inhibition in the absence of DS16570511 (none) and 100% inhibition in the presence of ruthenium 360. […]
# (§2) Livers were harvested from 6- to 18-week-old male Wistar rats (Japan SLC, Shizuoka, Japan), and mitochondria were isolated as previously described. […] Mitochondrial protein concentrations were measured using the Biuret method with bovine serum albumin as the standard in the presence of 1% SDS.
# Fluo-5 (1 µM) was used as a Ca^2+-sensitive fluorescence indicator in 1 mL of Pi medium (250 mM sucrose, 10 mM Tris-MOPS, 10 µM EGTA-Tris, 0.5 mg/mL bovine serum albumin, and 10 mM KPi, pH 7.4). Fluorescence intensity was measured using an F-2700 spectrofluorometer (HITACHI, Tokyo, Japan) with excitation and emission wavelengths of 494 and 516, respectively. […]
# [6] = system: membrane potential in rat liver mitochondria; test: Measurement of mitochondrial membrane potential formation (DiSC3(5)); format: biochemical; conditions: 10 mM succinate, first 5 s after succinate addition, read-out: IC50 for inhibition of membrane potential formation
# Protocol: Figure 3 Effect of DS16570511 on membrane potential in rat liver mitochondria. (a) Rat liver mitochondria were incubated in Pi medium containing the indicated concentrations of DS16570511 or antimycin. At the time points indicated by arrows, 10 mM succinate was added as a respiratory substrate, and membrane potential was measured using 3 µM DiSC3(5) as a probe. Representative traces are shown. (b) The degree of inhibition was calculated from the rate of membrane potential formation during the first 5 s after succinate addition, with 0% inhibition in the absence of DS16570511 (none) and 100% inhibition in the presence of SF6847. […]
# as §2
# DiSC3(5) (3 µM) was used as a fluorescent probe to measure mitochondrial membrane potential in 2.2 mL of Pi medium. Fluorescence intensity was measured using an F-2700 spectrofluorometer (HITACHI, Tokyo, Japan) with excitation and emission wavelengths of 643 and 666 nm, respectively. Fluorescence intensity was recorded after adding 10 mM succinate to Pi medium containing 2.5 µM CsA, 0.68 µg/mL rotenone, 0.42 mg protein/mL mitochondria, and DS16570511. […]
# [7] = system: respiratory chain complexes I–III–IV; test: Mitochondrial oxygen consumption with glutamate and malate as respiratory substrates; format: biochemical; conditions: rat liver mitochondria, 5 mM glutamate, 5 mM malate, 0.1 µM SF6847; read-out: IC50 for inhibition of oxygen consumption (glutamate and malate; respiratory chain complexes I–III–IV)
# Protocol: Figure 6 Effect of DS16570511 on oxygen consumption in the presence of glutamate and malate. (a) Mitochondria (Mt), 5 mM glutamate, 5 mM malate, and 0.1 µM SF6847 were added to Pi medium containing the indicated concentrations of DS16570511 or antimycin at the time points marked by arrows. Changes in dissolved oxygen concentration in the reaction medium were measured, and representative traces are shown. “natomsO” denotes the nanomoles of oxygen atoms in the reaction medium. (b) The degree of inhibition was calculated from the rate of oxygen consumption over a 3 min period, measured 30 s after SF6847 addition. Results are expressed as 0% inhibition in the absence of DS16570511 (none) and 100% inhibition with antimycin. Data are presented as the mean ± standard deviation of independent experiments (n = 3).
# as §2
# The rate of mitochondrial oxygen consumption was measured using a Clark-type oxygen electrode (YSI5331, Yellow Springs Instrument Co., Ltd., Yellow Springs, OH, USA) at 25 °C in 2.2 mL of Pi medium preincubated with 2.5 µM CsA. […]
# [8] = target: FoF1-ATPase/ANT; test: Mitochondrial FoF1-ATPase activity (pH electrode); format: biochemical; conditions: rat liver mitochondria, 1 mM ATP, antimycin, pH change over 3 min; read-out: IC50 for inhibition of FoF1-ATPase/ANT activity (pH decrease)
# Protocol: Figure 7 Effect of DS16570511 on mitochondrial FoF1-ATPase activity. (a) Schematic representation of mitochondrial FoF1-ATPase activity: ATP enters the matrix via ANT and is hydrolyzed to ADP by FoF1-ATPase, driving proton extrusion from the matrix and decreasing the reaction medium pH. […] (b) Mitochondria were added to the incubation medium containing the indicated concentrations of DS16570511 or oligomycin, and pH changes in the medium were measured using a pH electrode. Representative traces are shown. (c) Inhibition was calculated from the pH change over a 3 min period, starting 30 s after adding mitochondria. Results are expressed as 0% inhibition in the absence of DS16570511 and 100% inhibition with oligomycin. Data are presented as the mean ± standard deviation of independent experiments (n = 3).
# as §1
# Mitochondrial FoF1-ATPase activity was measured using a modified version of the classical pH electrode-based method. […]
# [9] = rat liver mitochondria, succinate
# T1 sequence (Q920L2 35-656): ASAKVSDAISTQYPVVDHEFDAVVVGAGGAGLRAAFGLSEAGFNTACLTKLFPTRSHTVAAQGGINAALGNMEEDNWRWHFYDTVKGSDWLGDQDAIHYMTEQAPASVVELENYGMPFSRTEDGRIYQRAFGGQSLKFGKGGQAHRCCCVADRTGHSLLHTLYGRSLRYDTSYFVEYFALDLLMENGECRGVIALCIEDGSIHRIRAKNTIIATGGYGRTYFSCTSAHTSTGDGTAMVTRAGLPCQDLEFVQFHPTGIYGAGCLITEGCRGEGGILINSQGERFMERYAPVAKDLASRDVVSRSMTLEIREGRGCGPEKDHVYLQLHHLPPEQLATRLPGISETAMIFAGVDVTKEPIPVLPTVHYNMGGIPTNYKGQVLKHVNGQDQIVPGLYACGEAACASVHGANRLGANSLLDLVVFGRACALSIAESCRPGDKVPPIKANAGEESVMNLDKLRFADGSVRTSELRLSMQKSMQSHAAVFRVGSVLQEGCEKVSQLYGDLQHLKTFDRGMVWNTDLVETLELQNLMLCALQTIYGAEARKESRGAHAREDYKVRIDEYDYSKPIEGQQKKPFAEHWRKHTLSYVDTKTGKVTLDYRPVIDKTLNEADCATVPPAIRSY
# T1 sequence (P21913 31-282): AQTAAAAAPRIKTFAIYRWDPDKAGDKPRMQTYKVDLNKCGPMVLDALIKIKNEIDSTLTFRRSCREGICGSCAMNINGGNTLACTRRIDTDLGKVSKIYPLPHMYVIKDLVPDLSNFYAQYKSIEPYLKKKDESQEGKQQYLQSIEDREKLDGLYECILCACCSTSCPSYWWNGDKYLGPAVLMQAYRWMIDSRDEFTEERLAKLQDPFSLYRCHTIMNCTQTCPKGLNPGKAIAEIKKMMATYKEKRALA
# T1 sequence (Q641Z9 30-169 limits assumed): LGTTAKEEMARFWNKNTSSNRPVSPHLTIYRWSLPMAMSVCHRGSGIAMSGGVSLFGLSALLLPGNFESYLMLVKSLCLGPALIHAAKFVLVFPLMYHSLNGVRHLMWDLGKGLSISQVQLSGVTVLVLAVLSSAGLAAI
# T1 sequence (Q6PCT8 57-159): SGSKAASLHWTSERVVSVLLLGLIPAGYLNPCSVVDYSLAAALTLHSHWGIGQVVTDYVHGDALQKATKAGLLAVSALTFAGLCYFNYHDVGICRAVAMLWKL
molecule,measurement,setting,value
Cc1onc(-c2c(Cl)cccc2Cl)c1/C=N/c1cccc(C(=O)c2cn(CCCC(=O)O)c3ccccc23)c1 [Compound 3],IC50,[1],52.7 µM
alamethicin,"Effect on mitochondrial oxygen consumption (uncoupling test, in words)",[2],markedly increased oxygen consumption
N.N.N.N.N.N.N.N.[Cl][Ru+3].[N-]=[Ru][Cl] [ruthenium 265],Adverse effect after intraperitoneal administration,[3],caused seizure-like movements
N.N.N.N.N.N.N.N.O=CO.O=CO.[O-2].[Ru+3].[Ru+4] [Ruthenium 360],IC50,[4],0.000184 µM
CC(C)(C)c1cc(C=C(C#N)C#N)cc(C(C)(C)C)c1O [SF6847],"Effect on mitochondrial oxygen consumption (uncoupling test, in words)",[2],markedly increased oxygen consumption
Cc1onc(-c2c(Cl)cccc2Cl)c1CNc1cccc(C(=O)c2cn(CCCC(=O)O)c3ccccc23)c1 [DS16570511],IC50,[5],9.2 µM
same,IC50,[6],10.8 µM
same,IC50,[1],9.5 µM
same,Inhibition of oxygen consumption at a single concentration (in words),"[1]; 200 µM, rat liver mitochondria, succinate, SF6847",inhibited oxygen consumption to the same extent as antimycin
same,IC50,[7],40.9 µM
same,IC50,[8],97.2 µM
same,"Effect on mitochondrial oxygen consumption (uncoupling test, in words)",[2],reduced the rate of oxygen consumption
CCOC(=O)CCCn1cc(C(=O)c2cccc(NCc3c(-c4c(Cl)cccc4Cl)noc3C)c2)c2ccccc21 [Compound 2],Inhibitory activity on oxygen consumption via respiratory chain complex II (in words),[1]; [9],completely lacked inhibitory activity
CCOC(=O)CCCn1cc(C(=O)c2cccc(/N=C/c3c(-c4c(Cl)cccc4Cl)noc3C)c2)c2ccccc21 [Compound 4],Inhibitory activity on oxygen consumption via respiratory chain complex II (in words),[1]; [9],completely lacked inhibitory activity
